Reference: patent US6172104A, “Dicationic dibenzofuran and dibenzothiophene compounds and methods of use thereof” (priority 1999, dated 2001)
Counter-ions that a name gives are not always drawn.

How the values were obtained:
[1] = tested on: Pneumocystis carinii; experiment: Activity against Pneumocystis carinii pneumonia (PCP) in the rat model, dibenzofuran dications (Example 2, Table 2); format: in vivo; details: for response vs control in vivo at 10 µmol/kg / response vs control in vivo at 22 µmol/kg / response vs control in vivo at 33 µmol/kg: Pneumocystis carinii, 336 h, read-out: Pneumocystis carinii % Saline control ± std error; for response vs control in vivo at 10 µmol/kg / response vs control in vivo at 22 µmol/kg: iv; for response vs control in vivo at 33 µmol/kg: 33.0 μmol/kg/day by oral gavage
From the text: Compounds 1-3 and 5-7 in the initial screen were given once daily by tail vein injection at a dose of 10 μmol/kg/day for 14 days, with activities compared to pentamidine at approximately one-half the effective iv dose of pentamidine, which is 22 μmol/kg/day.
Compounds 4 and 8 were synthesized to test if diamidoximes would be effective prodrugs of the dibenzofuran diamidines. Both the diamidoximes were screened for anti-P. carinii activity at 10 μmol/kg/day by tail vein injection and 33 μmol/kg/day by oral gavage for 14 days. […] Further studies of diamidoxime metabolism are being performed using cultured cell lines and cell-free enzyme preparations to understand more about the metabolic mechanisms of prodrug activation.
^a Dose units were μmol/kg/day. Each compound was administered to 8
rats once daily for 14 days. Doses marked with (*) were by oral gavage,
all others were i.v. via tail vein.
^c Cysts/g lung counts for the saline and pentamidine control groups
were pooled across experiments. Scores for each compound were reported as
% of the pooled saline scores. Saline: 47.53 × 10^6 cysts/g lung
(n = 45). Petamidine: 0.38 × 10^6 cysts/g lung (n = 42).

[2] = tested on: Pneumocystis carinii; experiment: animal or person; format: in vivo, Pneumocystis carinii; rat; details: for response vs control in vivo at 10 µmol/kg: 10.0 μmol/kg/day iv via tail vein, rats (4 rats for 3, 4, 9)
From the text: The activity is expressed as the percent of cysts counted in treated groups as compared to untreated controls. All of the compounds in the initial screen were given by tail vein injection at a dose of 10 μmol/kg/day for 14 days. The test compounds were compared for efficacy with the standard anti-PCP compound, pentamidine, at one-half the dose of pentamidine. […] Among the 2,8-substituted derivatives, the diamidine 1 and the bis-N-isopropylamidine 2 were very potent. A dose response study was performed upon compound 2.
^c Expressed as μmol/kg/day, given iv via tail vain to at least 8
rats once daily for 14 days, unless stated otherwise.
^e Cysts/g lung counts were 69.18 (× 10^6) for the saline
control group and 0.51 (× 10^6) for the pentamidine group. These
scores were pooled across experiments involving compounds 1-9. Saline: n =
55; pentamidine: n = 52.
^g Doses given to 4 rats.
^h Doses given by oral gavage.

[3] = tested on: whole cells; experiment: Conversion of diamidoxime to diamidine by whole cells (Example 2); format: in vitro ADME; details: preliminary results
[4] = tested on: Pneumocystis carinii; details: rat, in vivo; cited from earlier work
[5] = Pneumocystis carinii, in Rattus norvegicus, iv, 336 h, once daily 14 days, read-out: Pneumocystis carinii % Saline control ± std error
[6] = 10.0 μmol/kg/day i.v. via tail vein, once daily 14 days, 8 rats

N=C(N)c1ccc2oc3ccc(C(=N)N)cc3c2c1 [Compound 1 (Example 2), 2,8-Diamidinodibenzofuran dihydrochloride]
response vs control in vivo at 10 µmol/kg [1]: 7.15 ± 3.81%
response vs control in vivo at 22 µmol/kg [1]: 0.1 ± 0.02%

N=C(N)c1ccc2sc3ccc(C(=N)N)cc3c2c1 [Compound 1]
response vs control in vivo at 10 µmol/kg [2, 5]: 0.1 ± 0.03%

c1cc2oc3ccc(C4=NCCN4)cc3c2cc1C1=NCCN1 [Compound 2 (Example 2), 2,8-Di(2-imidazolinyl)dibenzofuran dihydrochloride]
response vs control in vivo at 10 µmol/kg [1, 6]: 97.4 ± 31.9%

CC(C)NC(=N)c1ccc2sc3ccc(C(=N)NC(C)C)cc3c2c1 [Compound 2]
response vs control in vivo at 0.1 µmol/kg ([2]; Pneumocystis carinii, in Rattus norvegicus, iv, 336 h, 0.1 μmol/kg/day iv, once daily 14 days, rats, read-out: Pneumocystis carinii % Saline control ± std error): 94.8 ± 28.3%
response vs control in vivo at 1 µmol/kg ([2]; Pneumocystis carinii, in Rattus norvegicus, iv, 336 h, 1.0 μmol/kg/day iv, once daily 14 days, rats, read-out: Pneumocystis carinii % Saline control ± std error): 12.8 ± 4.02%
response vs control in vivo at 2.5 µmol/kg ([2]; Pneumocystis carinii, in Rattus norvegicus, iv, 336 h, 2.5 μmol/kg/day iv, once daily 14 days, rats, read-out: Pneumocystis carinii % Saline control ± std error): 0.19 ± 0.1%
response vs control in vivo at 5 µmol/kg ([2]; Pneumocystis carinii, in Rattus norvegicus, iv, 336 h, 5.0 μmol/kg/day iv, once daily 14 days, rats, read-out: Pneumocystis carinii % Saline control ± std error): 0.04 ± 0.01%
response vs control in vivo at 10 µmol/kg [2, 5]: 0.01 ± 0.01%

CC(C)NC(=N)c1ccc2oc3ccc(C(=N)NC(C)C)cc3c2c1 [Compound 3 (Example 2), 2,8-Di(N-isopropylamidino)dibenzofuran dihydrochloride]
response vs control in vivo at 10 µmol/kg [1, 6]: 0.5 ± 0.27%

NC(=NO)c1ccc2sc3ccc(C(N)=NO)cc3c2c1 [Compound 3]
response vs control in vivo at 10 µmol/kg [2, 5]: 1.3 ± 0.84%

Cl.Cl.N=C(NO)c1ccc2oc3ccc(C(=N)NO)cc3c2c1 [Compound 4 (Example 2), 2,8-Di(N-hydroxylamidino)dibenzofuran dihydrochloride]
response vs control in vivo at 33 µmol/kg ([1]; once daily 14 days, 8 rats): 45.1 ± 21.6%
response vs control in vivo at 10 µmol/kg [1, 6]: 15.8 ± 14.6%
conversion of diamidoxime to diamidine (in words) [3]: less efficient than conversion of pentamidoxime to pentamidine by whole cells

N=C(N)c1ccc2c(c1)oc1cc(C(=N)N)ccc12 [Compound 5 (Example 2), 3,7-Diamidinodibenzofuran dihydrochloride]
response vs control in vivo at 10 µmol/kg [1, 6]: 183 ± 38.3%

c1cc2sc3ccc(C4=NCCN4)cc3c2cc1C1=NCCN1 [Compound 5]
response vs control in vivo at 10 µmol/kg [2, 5]: 28 ± 12.7%

c1cc2c(cc1C1=NCCN1)oc1cc(C3=NCCN3)ccc12 [Compound 6 (Example 2), 3,7-Di(2-imidazolinyl)dibenzofuran dihydrochloride]
response vs control in vivo at 10 µmol/kg [1, 6]: 220 ± 39.3%

O=S1(=O)c2ccc(C3=NCCN3)cc2-c2cc(C3=NCCN3)ccc21 [Compound 6]
response vs control in vivo at 10 µmol/kg [2, 5]: 93.5 ± 9.58%

CC(C)NC(=N)c1ccc2c(c1)oc1cc(C(=N)NC(C)C)ccc12 [Compound 7 (Example 2), 3,7-Di(isopropylamidino)dibenzofuran dihydrochloride]
response vs control in vivo at 10 µmol/kg [1, 6]: 0.28 ± 0.27%

N=C(N)c1ccc2c(c1)sc1cc(C(=N)N)ccc12 [Compound 7]
response vs control in vivo at 10 µmol/kg [2, 5]: 36 ± 9.59%

NC(=NO)c1ccc2c(c1)oc1cc(C(N)=NO)ccc12 [Compound 8 (Example 2), 3,7-Di(A-hydroxylamidino)dibenzofuran dihydrochloride]
response vs control in vivo at 33 µmol/kg ([1]; once daily 14 days, 8 rats): 150 ± 54%
response vs control in vivo at 10 µmol/kg [1, 6]: 166 ± 109%

CC(C)NC(=N)c1ccc2c(c1)sc1cc(C(=N)NC(C)C)ccc12 [Compound 8]
response vs control in vivo at 10 µmol/kg [2, 5]: 0.04 ± 0.02%

Cl.Cl.N=C(NO)c1ccc2c(c1)sc1cc(C(=N)NO)ccc12 [Compound 9 (Example 1), 3,7-Bis(N-hydroxyamidino)dibenzothiophene dihydrochloride]
response vs control in vivo at 10 µmol/kg [2, 5]: 112 ± 76.5%
response vs control in vivo at 33 µmol/kg ([2]; Pneumocystis carinii, in Rattus norvegicus, po, 336 h, 33.0 μmol/kg/day by oral gavage, once daily 14 days, 4 rats, read-out: Pneumocystis carinii % Saline control ± std error): 45.6 ± 26.1%
anti-PCP activity by both routes (in words) ([2]; intravenous and oral administration): inactive by both intravenous and oral administration

N=C(N)c1ccc(OCCCCCOc2ccc(C(=N)N)cc2)cc1 [Pentamidine, reference compound]
response vs control in vivo at 22 µmol/kg [1]: 0.8 ± 0.17%
Cysts/g lung counts ([1]; pentamidine control group pooled across experiments, n = 42): 0.38 × 10^6 cysts/g lung
response vs control in vivo at 22 µmol/kg ([2]; Pneumocystis carinii, in Rattus norvegicus, iv, 336 h, read-out: Pneumocystis carinii % Saline control ± std error): 0.74 ± 0.12%
Cysts/g lung counts ([2]; pentamidine group pooled across experiments, n = 52, 22.0 μmol/kg/day iv): 0.51 × 10^6 cysts/g lung

N/C(=N\O)c1ccc(OCCCCCOc2ccc(/C(N)=N/O)cc2)cc1 [Pentamidoxime, reference compound]
response vs control in vivo at 33 µmol/kg ([1]; once daily 14 days, 8 rats): 13.8 ± 9.12%
response vs control in vivo at 22 µmol/kg ([1]; 22.0 μmol/kg/day i.v. via tail vein, once daily 14 days, 8 rats): 0.11 ± 0.02%
prodrug behaviour (in words) [4]: an effective prodrug
